Measured values from ChEMBL document CHEMBL3797055, “Glabridin-chalcone hybrid molecules: drug resistance reversal agent against clinical isolates of methicillin-resistant Staphylococcus aureus” (Medchemcomm, 2016).
≈ marks a conversion by molar mass, not a printed value.

What was measured:
Assay type in all cases: functional
[1] = tested on: Staphylococcus aureus; assay: Potentiation of norfloxacin-induced antibacterial activity against clinical isolates of methicillin-resistant Staphylococcus aureus ST2071 assessed as reduction in norfloxacin MIC by checkerboard assay relative to control
[2] = tested on: Staphylococcus aureus; assay: Potentiation of norfloxacin-induced antibacterial activity against clinical isolates of methicillin-resistant Staphylococcus aureus P4629 assessed as reduction in norfloxacin MIC by checkerboard assay relative to control
[3] = tested on: Staphylococcus aureus; assay: Potentiation of norfloxacin-induced antibacterial activity against clinical isolates of methicillin-resistant Staphylococcus aureus P4423 assessed as reduction in norfloxacin MIC by checkerboard assay relative to control
[4] = tested on: Staphylococcus aureus; assay: Potentiation of norfloxacin-induced antibacterial activity against clinical isolates of methicillin-resistant Staphylococcus aureus ST10760 assessed as reduction in norfloxacin MIC by checkerboard assay relative to control
[5] = tested on: Staphylococcus aureus; assay: Potentiation of norfloxacin-induced antibacterial activity against clinical isolates of methicillin-resistant Staphylococcus aureus ST10342 assessed as reduction in norfloxacin MIC by checkerboard assay relative to control
[6] = tested on: Staphylococcus aureus; assay: Potentiation of norfloxacin-induced antibacterial activity against clinical isolates of methicillin-resistant Staphylococcus aureus P4650 assessed as reduction in norfloxacin MIC by checkerboard assay relative to control
[7] = tested on: Staphylococcus aureus; assay: Ratio of MIC for clinical isolates of methicillin-resistant Staphylococcus aureus ST2071 to MIC for clinical isolates of methicillin-resistant Staphylococcus aureus ST2071 in presence of norfloxacin
[8] = tested on: Staphylococcus aureus; assay: Ratio of MIC for clinical isolates of methicillin-resistant Staphylococcus aureus P4629 to MIC for clinical isolates of methicillin-resistant Staphylococcus aureus P4629 in presence of norfloxacin
[9] = tested on: Staphylococcus aureus; assay: Ratio of MIC for clinical isolates of methicillin-resistant Staphylococcus aureus ST10342 to MIC for clinical isolates of methicillin-resistant Staphylococcus aureus ST10342 in presence of norfloxacin
[10] = tested on: Staphylococcus aureus; assay: Ratio of MIC for clinical isolates of methicillin-resistant Staphylococcus aureus P4650 to MIC for clinical isolates of methicillin-resistant Staphylococcus aureus P4650 in presence of norfloxacin
[11] = tested on: Staphylococcus aureus; assay: Bactericidal activity against clinical isolates of methicillin-resistant Staphylococcus aureus ST2071 assessed as reduction in viability at MIC after 24 hrs by time kill kinetic analysis relative to control
[12] = tested on: Staphylococcus aureus; assay: Bactericidal activity against clinical isolates of methicillin-resistant Staphylococcus aureus ST2071 assessed as reduction in viability at 0.5 MIC after 24 hrs by time kill kinetic analysis relative to control
[13] = tested on: Staphylococcus aureus; assay: Bactericidal activity against clinical isolates of methicillin-resistant Staphylococcus aureus ST2071 assessed as reduction in viability at 0.5 MIC after 24 hrs by time kill kinetic analysis in presence of norfloxacin relative to control
[14] = tested on: Staphylococcus aureus; assay: Antibacterial activity against Staphylococcus aureus MTCC 96 by broth microdilution assay
[15] = tested on: Staphylococcus aureus; assay: Antibacterial activity against clinical isolates of methicillin-resistant Staphylococcus aureus ST2071 by broth microdilution assay
[16] = tested on: Staphylococcus aureus; assay: Antibacterial activity against clinical isolates of methicillin-resistant Staphylococcus aureus P4629 by broth microdilution assay
[17] = tested on: Staphylococcus aureus; assay: Antibacterial activity against clinical isolates of methicillin-resistant Staphylococcus aureus P4423 by broth microdilution assay
[18] = tested on: Staphylococcus aureus; assay: Antibacterial activity against clinical isolates of methicillin-resistant Staphylococcus aureus ST10760 by broth microdilution assay
[19] = tested on: Staphylococcus aureus; assay: Antibacterial activity against clinical isolates of methicillin-resistant Staphylococcus aureus ST10342 by broth microdilution assay
[20] = tested on: Staphylococcus aureus; assay: Antibacterial activity against clinical isolates of methicillin-resistant Staphylococcus aureus P4650 by broth microdilution assay
[21] = tested on: Staphylococcus aureus; assay: Potentiation of norfloxacin-induced antibacterial activity against clinical isolates of methicillin-resistant Staphylococcus aureus ST2071 assessed as norfloxacin MIC by checkerboard assay
[22] = tested on: Staphylococcus aureus; assay: Potentiation of norfloxacin-induced antibacterial activity against clinical isolates of methicillin-resistant Staphylococcus aureus P4629 assessed as norfloxacin MIC by checkerboard assay
[23] = tested on: Staphylococcus aureus; assay: Potentiation of norfloxacin-induced antibacterial activity against clinical isolates of methicillin-resistant Staphylococcus aureus P4423 assessed as norfloxacin MIC by checkerboard assay
[24] = tested on: Staphylococcus aureus; assay: Potentiation of norfloxacin-induced antibacterial activity against clinical isolates of methicillin-resistant Staphylococcus aureus ST10760 assessed as norfloxacin MIC by checkerboard assay
[25] = tested on: Staphylococcus aureus; assay: Potentiation of norfloxacin-induced antibacterial activity against clinical isolates of methicillin-resistant Staphylococcus aureus ST10342 assessed as norfloxacin MIC by checkerboard assay
[26] = tested on: Staphylococcus aureus; assay: Potentiation of norfloxacin-induced antibacterial activity against clinical isolates of methicillin-resistant Staphylococcus aureus P4650 assessed as norfloxacin MIC by checkerboard assay
[27] = tested on: Staphylococcus aureus; assay: Antibacterial activity against clinical isolates of methicillin-resistant Staphylococcus aureus ST2071 by checkerboard assay in presence of norfloxacin
[28] = tested on: Staphylococcus aureus; assay: Antibacterial activity against clinical isolates of methicillin-resistant Staphylococcus aureus P4629 by checkerboard assay in presence of norfloxacin
[29] = tested on: Staphylococcus aureus; assay: Antibacterial activity against clinical isolates of methicillin-resistant Staphylococcus aureus P4423 by checkerboard assay in presence of norfloxacin
[30] = tested on: Staphylococcus aureus; assay: Antibacterial activity against clinical isolates of methicillin-resistant Staphylococcus aureus ST10760 by checkerboard assay in presence of norfloxacin
[31] = tested on: Staphylococcus aureus; assay: Antibacterial activity against clinical isolates of methicillin-resistant Staphylococcus aureus ST10342 by checkerboard assay in presence of norfloxacin
[32] = tested on: Staphylococcus aureus; assay: Antibacterial activity against clinical isolates of methicillin-resistant Staphylococcus aureus P4650 by checkerboard assay in presence of norfloxacin
[33] = tested on: Staphylococcus aureus; assay: Ratio of MIC for clinical isolates of methicillin-resistant Staphylococcus aureus P4423 to MIC for clinical isolates of methicillin-resistant Staphylococcus aureus P4423 in presence of norfloxacin
[34] = tested on: Staphylococcus aureus; assay: Ratio of MIC for clinical isolates of methicillin-resistant Staphylococcus aureus ST10760 to MIC for clinical isolates of methicillin-resistant Staphylococcus aureus ST10760 in presence of norfloxacin

SMILES | fold change (FC) [1] | fold change (FC) [2] | fold change (FC) [3] | fold change (FC) [4] | fold change (FC) [5] | fold change (FC) [6] | Ratio [7] | Ratio [8] | Ratio [9] | Ratio [10] | fold change (FC) [11] | fold change (FC) [12] | fold change (FC) [13] | MIC [14] | MIC [15] | MIC [16] | MIC [17] | MIC [18] | MIC [19] | MIC [20] | other results
COc1ccc([C@@H]2COc3c(cc(/C=C/C(=O)c4ccc(OC)c(OC)c4)c4c3C=CC(C)(C)O4)C2)c(OC)c1 | 4 | 8 | 4 | 4 | 8 | 4 | <=4 | <=4 | <=4 | <=4 | 2 | <=1.52 | <=4 | 25 mg/L (≈ 46.1 µM) | 50 mg/L (≈ 92.1 µM) | 50 mg/L (≈ 92.1 µM) | 50 mg/L (≈ 92.1 µM) | 50 mg/L (≈ 92.1 µM) | 50 mg/L (≈ 92.1 µM) | 50 mg/L (≈ 92.1 µM) | MIC [21]: 125 mg/L; MIC [22]: 62.5 mg/L; MIC [23]: 62.5 mg/L; MIC [24]: 125 mg/L; MIC [25]: 31.2 mg/L; MIC [26]: 62.5 mg/L; fractional inhibitory concentration index (FICI) [27]: 0.5; fractional inhibitory concentration index (FICI) [28]: 0.375; fractional inhibitory concentration index (FICI) [29]: 0.75; fractional inhibitory concentration index (FICI) [30]: 0.75; fractional inhibitory concentration index (FICI) [31]: 0.375; fractional inhibitory concentration index (FICI) [32]: 0.5
COc1ccc([C@@H]2COc3c(cc(/C=C/C(=O)c4ccco4)c4c3C=CC(C)(C)O4)C2)c(OC)c1 | 8 | 4 | 8 | 8 | 8 | 4 | 4 | 4 | 4 | 4 | 2 | <=1.52 | <=3 | 12.5 mg/L (≈ 26.5 µM) | 25 mg/L (≈ 52.9 µM) | 12.5 mg/L (≈ 26.5 µM) | 12.5 mg/L (≈ 26.5 µM) | 25 mg/L (≈ 52.9 µM) | 12.5 mg/L (≈ 26.5 µM) | 12.5 mg/L (≈ 26.5 µM) | Ratio [33]: 4; Ratio [34]: 4; MIC [21]: 62.5 mg/L; MIC [22]: 125 mg/L; MIC [23]: 31.2 mg/L; MIC [24]: 62.5 mg/L; MIC [25]: 31.2 mg/L; MIC [26]: 62.5 mg/L; fractional inhibitory concentration index (FICI) [27]: 0.375; fractional inhibitory concentration index (FICI) [28]: 0.625; fractional inhibitory concentration index (FICI) [29]: 0.5; fractional inhibitory concentration index (FICI) [30]: 0.375; fractional inhibitory concentration index (FICI) [31]: 0.5; fractional inhibitory concentration index (FICI) [32]: 0.625
